Results reported in patent US20220143003A1, “COMPOSITIONS AND METHODS TO TREAT NON-ALCOHOLIC FATTY LIVER DISEASES (NAFLD)” (Coherus Biosciences, Inc., priority 2018, published 2022).

Columns and labels:
Format in all cases: in vivo, male C57BL/6JRj mice
DIO-NASH mice [1] = test: EchoMRI body composition (MRI body weight, fat, lean and free water mass); details: for Absolute fat tissue mass at week 11 / Absolute free water mass at week 11 / MRI body weight at week 11 / Relative fat tissue mass at week 11 / Relative lean tissue mass at week 11 / Relative free water mass (% of body weight): group mean, week 11
Experimental: The body composition of the mice was assessed by an EchoMRI 3-1 Body composition analyzer (EchoMRI, US). Non-anaesthetised mice was placed in a plastic tube inside the MRI scanner for approximately 80 seconds. The body composition is expressed as fat mass, fat free mass (lean mass) and water.

DIO-NASH mice [2] = test: 4 h fasted blood glucose; details: group mean
DIO-NASH mice [3] = test: Absolute and relative liver weight at termination; details: for Absolute liver weight at termination / Liver weight at termination, relative (% of body weight): group mean
Experimental: Animals were terminated after 12 weeks of treatment in a non-fasting state. Animals were put under isoflurane anesthesia, the abdominal cavity was opened, and cardiac blood was drawn directly into a Vacuette of the right dimension and anticoagulant and mixed by inversion 5 times. Blood was placed at 4° C. until centrifugation at 3000×g for 10 minutes at 4° C. The plasma supernatants were transferred to new tubes and immediately frozen on dry ice and stored at −80° C. Upon necropsy, the whole liver was collected and weighed. The liver was sampled for histological and biochemical analyses as described below.
Absolute liver weight at termination (g). Values expressed as mean of n=12-14+SEM.
Liver weight at termination in relative (% of body weight) values. Values expressed as mean of n=12-14+SEM.

DIO-NASH mice [4] = test: Liver total cholesterol (TC) at termination; details: group mean
Experimental: (§1) The liver post-biopsy for histological analyses was removed by dissection from the left lateral lobe, fixated in 4% formalin for 20-24 h, and subsequently embedded in paraffin. Liver biopsies for liver triglycerides and total cholesterol were dissected from the medial lobe, snap frozen in liquid nitrogen, and stored at −80° C., while liver biopsies for hydroxyproline were dissected from the caudal lobe (the entire lobe), snap frozen in liquid nitrogen and stored at −80° C. Finally, a liver sample for RNA isolation and gene expression analysis was dissected from the left lateral lobe, snap frozen in liquid nitrogen, and stored at −80° C. until processing.
(§2) For liver TG and TC quantification, samples were homogenized, and TG and TC extracted in 5% NP-40 by heating twice to 90° C. The samples were centrifuged, and the TG and TC content measured in the supernatant, using commercial kits (Roche Diagnostics) on the Cobas c501 autoanalyzer according to the manufacturer's instructions.
Relative (mg/g of liver) liver total cholesterol (TC) at termination. Values expressed as mean of n=12-14+SEM.
Total (mg/liver) liver total cholesterol (TC) at termination. Values expressed as mean of […]+SEM.

DIO-NASH mice [5] = test: Liver triglycerides (TG) at termination; details: group mean
Experimental: as §1, §2
Relative (mg/g of liver) liver triglycerides (TG) at termination. Values expressed as mean of n=12-14+SEM.
Total (mg/liver) liver triglycerides (TG) at termination. Values expressed as mean of n=12-14+SEM.

DIO-NASH mice [6] = test: Liver Collagen 1A1 (Col1a1) IHC quantified by morphometry; details: for Relative terminal liver Col1a1 by morphometry / Total terminal Col1a1 (% fractional area multiplied with liver weight): group mean
Experimental: After surgery, the animals were evaluated daily on general health and body weight. […] The pre-biopsy was analyzed to evaluate liver steatosis score and fibrosis stage for study inclusion as outlined by Kleiner et al. (2005) (Table 1). In addition, liver Collagen 1a1 (Col1a1) quantified by morphometry was used to perform a stratified randomization of NASH-affected animals into study groups (see description of histopathological stains and analyses below).
Protein markers of fibrosis (Col1a1), fibrogenesis (α-SMA) and inflammation (Gal-3) were assessed by immunohistochemistry. α-SMA and collagen type I increase in regulation of quiescent hepatic stellate cell activation into myofibroblast-like cells where activated hepatic stellate cells are the main collagen producing cells in the liver (Carpino et al 2005, Hou and Syn 2018) whereas Gal-3 is involved in mediating inflammatory response and considered as a macrophage activation marker (Sciacchitano et al, 2018). For morphometric quantification of liver Col1a1 (using antibody from Southern Biotech, Cat. #1310-01), alpha-smooth muscle actin (α-SMA; using antibody from Abcam, Cat. #Ab124964) and Galectin-3 (using antibody from Biolegend, Cat. #125402), IHC staining was performed using standard procedures. Briefly, after antigen retrieval and blocking of endogenous peroxidase activity, slides were incubated with primary antibody. For all IHC stains, the primary antibody was detected using a polymeric HRP-linker antibody conjugate and visualized using DAB as chromogen. Finally, sections were counterstained in hematoxylin and cover-slipped before scanning.
Quantitative assessment of immunoreactivity is evaluated as follows. IHC-positive staining is quantified by image analysis using the Visiomorph software (Visiopharm, Denmark). Visiomorph protocols are designed to analyze the virtual slides in two steps: 1. Crude detection of tissue at low magnification (1× objective). The liver capsule is excluded. 2. Detection of IHC-positive staining (e.g. green; collagen 1 IHC), tissue (e.g. red) and fat (e.g. pink) at high magnification (10×objective). The quantitative estimate of IHC-positive staining is calculated as an area fraction (AF) according to the following formula:
Liver fibrosis (Col1a1%) at baseline. Values expressed as mean of n=12-14+SEM.
Terminal liver Collagen 1A1 (Col1a1) was quantified by morphometry. Relative Terminal liver Col1a1 (% fractional area) is expressed as mean of n=12-14+SEM.
Total terminal Col1a1 values are in milligrams (% fractional area multiplied with liver weight) and expressed as mean of n=12-14+SEM.

[7] = DIO-NASH mice, compared to DIO mice administered vehicle only
[8] = DIO-NASH mice, CHS-131 High 30 mg/kg, empagliflozin 10 mg/kg, elafibranor 30 mg/kg PO, liraglutide 0.4 mg/kg SC, QD
[9] = DIO-NASH mice, CHS-131 Low 10 mg/kg PO QD
[10] = CHS-131 High dose (alone or combined)
[11] = at baseline, CHS-131 High dose (alone or combined)
[12] = week 12, CHS-131 High dose (alone or combined)

O=S(=O)(Nc1cc(Cl)c(Oc2cnc3ccccc3c2)c(Cl)c1)c1ccc(Cl)cc1Cl [CHS-131]
Fat tissue mass (fat mass), effect in words (DIO-NASH mice [1]; [7]): reduced significantly | Free water mass, effect in words (DIO-NASH mice [1]; [7]): remained stable | Relative fat tissue mass, effect in words (DIO-NASH mice [1]; [7]): reduced | Reduction of % fat mass as % of baseline body weight (DIO-NASH mice [1]; DIO-NASH mice, compared to vehicle alone, CHS-131 dose not stated): 20% | Absolute fat tissue mass at week 11 (DIO-NASH mice [1]; [8]): 6.9 g | Absolute free water mass at week 11 (DIO-NASH mice [1]; [8]): 0.0946 g | MRI body weight at week 11 (DIO-NASH mice [1]; [8]): 38.2 g | Relative fat tissue mass at week 11 (DIO-NASH mice [1]; [8]): 17.8 % of body weight | Relative lean tissue mass at week 11 (DIO-NASH mice [1]; [8]): 48.1 % of body weight | Absolute fat tissue mass at week 11 (DIO-NASH mice [1]; [9]): 7.07 g | Absolute free water mass at week 11 (DIO-NASH mice [1]; [9]): 0.165 g | MRI body weight at week 11 (DIO-NASH mice [1]; [9]): 38.3 g | Relative fat tissue mass at week 11 (DIO-NASH mice [1]; [9]): 18.4 % of body weight | Relative lean tissue mass at week 11 (DIO-NASH mice [1]; [9]): 48.5 % of body weight | Relative free water mass (% of body weight) (DIO-NASH mice [1]; [10]): 0.249 % of body weight | Relative free water mass (% of body weight) (DIO-NASH mice [1]; CHS-131 Low dose): 0.429 % of body weight | 4 h fasted blood glucose (DIO-NASH mice [2]; [11]): 7.68 mmol/L | 4 h fasted blood glucose (DIO-NASH mice [2]; at baseline, CHS-131 Low dose): 8.09 mmol/L | 4 h fasted blood glucose (DIO-NASH mice [2]; [12]): 7.01 mmol/L | 4 h fasted blood glucose (DIO-NASH mice [2]; week 12, CHS-131 Low dose): 7.31 mmol/L | Delta 4 h fasted blood glucose week 12 vs baseline (DIO-NASH mice [2]; [10]): -0.675 mmol/L | Delta 4 h fasted blood glucose week 12 vs baseline (DIO-NASH mice [2]; CHS-131 Low dose): -0.787 mmol/L | Relative liver weight, effect in words (DIO-NASH mice [3]; [7]): No difference | Absolute liver weight at termination (DIO-NASH mice [3]; [10]): 3.14 g | Liver weight at termination, relative (% of body weight) (DIO-NASH mice [3]; [10]): 8.15 % of body weight | Absolute liver weight at termination (DIO-NASH mice [3]; CHS-131 Low dose): 3.21 g | Liver weight at termination, relative (% of body weight) (DIO-NASH mice [3]; CHS-131 Low dose): 8.4 % of body weight | Relative liver total cholesterol (TC) at termination (DIO-NASH mice [4]; [10]): 12.3 mg/g of liver | Total liver total cholesterol (TC) at termination (DIO-NASH mice [4]; [10]): 39.2 mg/liver | Relative liver total cholesterol (TC) at termination (DIO-NASH mice [4]; CHS-131 Low dose): 12.4 mg/g of liver | Total liver total cholesterol (TC) at termination (DIO-NASH mice [4]; CHS-131 Low dose): 39.6 mg/liver | Relative liver triglycerides (TG) at termination (DIO-NASH mice [5]; [10]): 92.9 mg/g of liver | Total liver triglycerides (TG) at termination (DIO-NASH mice [5]; [10]): 300 mg/liver | Relative liver triglycerides (TG) at termination (DIO-NASH mice [5]; CHS-131 Low dose): 96.7 mg/g of liver | Total liver triglycerides (TG) at termination (DIO-NASH mice [5]; CHS-131 Low dose): 306 mg/liver | Decrease of terminal Collagen 1a1 (marker of fibrosis) (DIO-NASH mice [6]; DIO-NASH mice, compared to vehicle alone, trend): 15% | Relative terminal liver Col1a1 by morphometry (DIO-NASH mice [6]; [10]): 6.77 % fractional area | Total terminal Col1a1 (% fractional area multiplied with liver weight) (DIO-NASH mice [6]; [10]): 220 milligrams | Relative terminal liver Col1a1 by morphometry (DIO-NASH mice [6]; CHS-131 Low dose): 6.64 % fractional area | Total terminal Col1a1 (% fractional area multiplied with liver weight) (DIO-NASH mice [6]; CHS-131 Low dose): 213 milligrams

CSc1ccc(C(=O)/C=C/c2cc(C)c(OC(C)(C)C(=O)O)c(C)c2)cc1 [Elafibranor, reference compound]
Absolute fat tissue mass at week 11 (DIO-NASH mice [1]; [8]): 3.73 g | Absolute free water mass at week 11 (DIO-NASH mice [1]; [8]): 0.0923 g | MRI body weight at week 11 (DIO-NASH mice [1]; [8]): 32.5 g | Relative fat tissue mass at week 11 (DIO-NASH mice [1]; [8]): 11.3 % of body weight | Relative lean tissue mass at week 11 (DIO-NASH mice [1]; [8]): 52.6 % of body weight | Relative free water mass (% of body weight) (DIO-NASH mice [1]; [10]): 0.292 % of body weight | 4 h fasted blood glucose (DIO-NASH mice [2]; [11]): 7.68 mmol/L | 4 h fasted blood glucose (DIO-NASH mice [2]; [12]): 6.41 mmol/L | Delta 4 h fasted blood glucose week 12 vs baseline (DIO-NASH mice [2]; [10]): -1.27 mmol/L | Absolute liver weight at termination (DIO-NASH mice [3]; [10]): 4.2 g | Liver weight at termination, relative (% of body weight) (DIO-NASH mice [3]; [10]): 13.1 % of body weight | Relative liver total cholesterol (TC) at termination (DIO-NASH mice [4]; [10]): 8.87 mg/g of liver | Total liver total cholesterol (TC) at termination (DIO-NASH mice [4]; [10]): 38.3 mg/liver | Relative liver triglycerides (TG) at termination (DIO-NASH mice [5]; [10]): 45.2 mg/g of liver | Total liver triglycerides (TG) at termination (DIO-NASH mice [5]; [10]): 196 mg/liver | Relative terminal liver Col1a1 by morphometry (DIO-NASH mice [6]; [10]): 6.27 % fractional area | Total terminal Col1a1 (% fractional area multiplied with liver weight) (DIO-NASH mice [6]; [10]): 270 milligrams

OC[C@H]1O[C@@H](c2ccc(Cl)c(Cc3ccc(O[C@H]4CCOC4)cc3)c2)[C@H](O)[C@@H](O)[C@@H]1O [Empagliflozin, reference compound]
Absolute fat tissue mass at week 11 (DIO-NASH mice [1]; [8]): 7.81 g | Absolute free water mass at week 11 (DIO-NASH mice [1]; [8]): 0.182 g | MRI body weight at week 11 (DIO-NASH mice [1]; [8]): 40.1 g | Relative fat tissue mass at week 11 (DIO-NASH mice [1]; [8]): 19.4 % of body weight | Relative lean tissue mass at week 11 (DIO-NASH mice [1]; [8]): 47.1 % of body weight | Relative free water mass (% of body weight) (DIO-NASH mice [1]; [10]): 0.458 % of body weight | 4 h fasted blood glucose (DIO-NASH mice [2]; [11]): 7.71 mmol/L | 4 h fasted blood glucose (DIO-NASH mice [2]; [12]): 6.69 mmol/L | Delta 4 h fasted blood glucose week 12 vs baseline (DIO-NASH mice [2]; [10]): -1.03 mmol/L | Absolute liver weight at termination (DIO-NASH mice [3]; [10]): 3.37 g | Liver weight at termination, relative (% of body weight) (DIO-NASH mice [3]; [10]): 8.48 % of body weight | Relative liver total cholesterol (TC) at termination (DIO-NASH mice [4]; [10]): 12.6 mg/g of liver | Total liver total cholesterol (TC) at termination (DIO-NASH mice [4]; [10]): 43.2 mg/liver | Relative liver triglycerides (TG) at termination (DIO-NASH mice [5]; [10]): 108 mg/g of liver | Total liver triglycerides (TG) at termination (DIO-NASH mice [5]; [10]): 368 mg/liver | Relative terminal liver Col1a1 by morphometry (DIO-NASH mice [6]; [10]): 7.31 % fractional area | Total terminal Col1a1 (% fractional area multiplied with liver weight) (DIO-NASH mice [6]; [10]): 250 milligrams
